pIC50, pKd: −log10 of the molar value. Like-named read-outs stand apart in the source and are kept apart here.
Legend:
[1] = target: T1, kinase enzymes (Homo sapiens, UniProt P48736); test: Enzyme binding assay (KINOMEscan, DiscoveRx), further kinases of Table A; settings: PIK3Cγ_h
T1 construct: purchased DiscoveRx Corporation, San Diego (contract service, KINOMEscan)
Outline: (§1)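 Affinity for each kinase was determined by KINOMEscan profiling.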

[2] = target: T2, kinase enzymes (Homo sapiens, UniProt P42345); test: as above; settings: MTOR_h
T2 construct: purchased DiscoveRx Corporation, San Diego (contract service, KINOMEscan)
Outline: as §1

[3] = target: T3, kinase enzymes (Homo sapiens, UniProt P42336); test: as above; settings: PIK3Cα_h
T3 construct: purchased DiscoveRx Corporation, San Diego (contract service, KINOMEscan)
Outline: as §1

[4] = tested on: Akt phosphorylated at Thr308 in PC-3 cells; test: Cellular assay: phosphorylation of Akt at Thr308 in PC-3 cells (MSD ELISA); type: cell-based; settings: PC-3 cells, 60 min compound incubation, MSD ELISA, read-out: IC50 pAkt_Thr308
Outline: (§2)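 Compound treatment of PC-3 cells lasted 60 min at 37° C (0.3% DMSO). Lysates were then applied to plates carrying capture antibodies for the relevant phospho-site, and bound Akt was detected with an electrochemiluminescent anti-total Akt antibody; IC50s derive from five-point curves.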

[5] = target: T4, PI3Kβ (Homo sapiens, UniProt P42338); test: Enzyme binding assay (KINOMEscan, DiscoveRx); settings: PIK3Cβ_h, read-out: Kd PIK3Cβ_h
T4 construct: purchased DiscoveRx Corporation, San Diego (contract service, KINOMEscan)
Outline: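 Values are Kd in nM, the binding constant of each inhibitor for the kinase, obtained from a KINOMEscan enzyme binding assay.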

[6] = target: T5, PI3Kδ (Homo sapiens, UniProt O00329); test: Enzyme binding assay (KINOMEscan, DiscoveRx); settings: PIK3Cδ_h
T5 construct: purchased DiscoveRx Corporation, San Diego (contract service, KINOMEscan)
T5 sequence (O00329 1-1044): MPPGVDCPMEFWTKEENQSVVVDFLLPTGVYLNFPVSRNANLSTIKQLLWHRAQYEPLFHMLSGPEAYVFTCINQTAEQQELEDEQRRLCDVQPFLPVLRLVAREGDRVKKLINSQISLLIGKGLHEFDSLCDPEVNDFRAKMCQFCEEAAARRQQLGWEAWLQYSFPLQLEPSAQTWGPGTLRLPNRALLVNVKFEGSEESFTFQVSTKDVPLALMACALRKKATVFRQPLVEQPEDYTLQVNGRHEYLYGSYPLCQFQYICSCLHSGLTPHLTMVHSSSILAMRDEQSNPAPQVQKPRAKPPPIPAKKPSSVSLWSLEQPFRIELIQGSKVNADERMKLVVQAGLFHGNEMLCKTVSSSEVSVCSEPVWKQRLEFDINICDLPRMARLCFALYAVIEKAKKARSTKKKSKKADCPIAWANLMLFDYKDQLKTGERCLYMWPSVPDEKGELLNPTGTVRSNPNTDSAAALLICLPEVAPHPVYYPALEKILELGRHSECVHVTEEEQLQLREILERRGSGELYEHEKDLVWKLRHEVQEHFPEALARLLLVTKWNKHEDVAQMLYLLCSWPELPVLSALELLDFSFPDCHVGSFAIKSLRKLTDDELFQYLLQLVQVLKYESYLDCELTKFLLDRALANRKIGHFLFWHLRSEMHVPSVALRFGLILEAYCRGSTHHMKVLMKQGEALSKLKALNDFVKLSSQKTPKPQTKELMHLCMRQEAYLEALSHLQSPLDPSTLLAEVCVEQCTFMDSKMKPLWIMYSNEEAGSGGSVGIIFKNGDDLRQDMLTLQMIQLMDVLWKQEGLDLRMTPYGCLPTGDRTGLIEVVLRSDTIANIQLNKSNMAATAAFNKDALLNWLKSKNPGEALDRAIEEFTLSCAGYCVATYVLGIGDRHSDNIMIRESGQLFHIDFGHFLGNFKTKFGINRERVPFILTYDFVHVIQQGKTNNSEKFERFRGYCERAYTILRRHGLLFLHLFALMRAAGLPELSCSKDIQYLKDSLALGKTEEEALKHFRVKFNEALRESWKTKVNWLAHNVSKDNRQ
Outline: as §1

[7] = tested on: Akt phosphorylated at Ser473 in PC-3 cells; test: Cellular assay: phosphorylation of Akt at Ser473 in PC-3 cells (MSD ELISA); type: cell-based; settings: PC-3 cells, 60 min compound incubation, MSD ELISA, read-out: IC50 pAkt_S473
Outline: as §2

T3 sequence (P42336 whole entry): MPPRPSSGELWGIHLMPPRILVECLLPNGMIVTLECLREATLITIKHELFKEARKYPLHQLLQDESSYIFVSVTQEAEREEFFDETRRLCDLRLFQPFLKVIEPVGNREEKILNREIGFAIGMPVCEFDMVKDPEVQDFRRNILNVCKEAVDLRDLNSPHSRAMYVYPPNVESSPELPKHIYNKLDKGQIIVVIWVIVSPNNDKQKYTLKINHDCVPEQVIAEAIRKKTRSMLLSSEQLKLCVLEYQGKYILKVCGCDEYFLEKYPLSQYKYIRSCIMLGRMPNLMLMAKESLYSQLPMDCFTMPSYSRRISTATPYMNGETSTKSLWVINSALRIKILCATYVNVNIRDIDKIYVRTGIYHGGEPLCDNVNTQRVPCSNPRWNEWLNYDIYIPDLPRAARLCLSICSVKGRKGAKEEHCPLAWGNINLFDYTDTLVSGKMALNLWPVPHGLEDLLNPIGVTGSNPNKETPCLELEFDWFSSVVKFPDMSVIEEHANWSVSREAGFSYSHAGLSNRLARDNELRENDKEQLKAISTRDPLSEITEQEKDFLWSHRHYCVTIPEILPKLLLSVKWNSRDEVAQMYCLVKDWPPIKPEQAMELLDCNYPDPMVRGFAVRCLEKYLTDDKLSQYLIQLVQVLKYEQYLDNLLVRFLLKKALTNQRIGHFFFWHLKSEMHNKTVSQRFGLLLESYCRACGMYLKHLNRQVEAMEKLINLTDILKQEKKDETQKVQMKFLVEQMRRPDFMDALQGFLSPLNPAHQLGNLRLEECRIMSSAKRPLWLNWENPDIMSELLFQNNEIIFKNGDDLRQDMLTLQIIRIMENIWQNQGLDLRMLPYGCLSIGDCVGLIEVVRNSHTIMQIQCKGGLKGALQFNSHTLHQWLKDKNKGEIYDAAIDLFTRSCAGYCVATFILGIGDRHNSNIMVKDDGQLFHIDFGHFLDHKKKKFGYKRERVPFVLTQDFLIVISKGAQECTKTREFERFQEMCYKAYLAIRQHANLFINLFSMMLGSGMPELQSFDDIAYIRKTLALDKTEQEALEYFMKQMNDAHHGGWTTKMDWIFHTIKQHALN
T4 sequence (P42338 whole entry): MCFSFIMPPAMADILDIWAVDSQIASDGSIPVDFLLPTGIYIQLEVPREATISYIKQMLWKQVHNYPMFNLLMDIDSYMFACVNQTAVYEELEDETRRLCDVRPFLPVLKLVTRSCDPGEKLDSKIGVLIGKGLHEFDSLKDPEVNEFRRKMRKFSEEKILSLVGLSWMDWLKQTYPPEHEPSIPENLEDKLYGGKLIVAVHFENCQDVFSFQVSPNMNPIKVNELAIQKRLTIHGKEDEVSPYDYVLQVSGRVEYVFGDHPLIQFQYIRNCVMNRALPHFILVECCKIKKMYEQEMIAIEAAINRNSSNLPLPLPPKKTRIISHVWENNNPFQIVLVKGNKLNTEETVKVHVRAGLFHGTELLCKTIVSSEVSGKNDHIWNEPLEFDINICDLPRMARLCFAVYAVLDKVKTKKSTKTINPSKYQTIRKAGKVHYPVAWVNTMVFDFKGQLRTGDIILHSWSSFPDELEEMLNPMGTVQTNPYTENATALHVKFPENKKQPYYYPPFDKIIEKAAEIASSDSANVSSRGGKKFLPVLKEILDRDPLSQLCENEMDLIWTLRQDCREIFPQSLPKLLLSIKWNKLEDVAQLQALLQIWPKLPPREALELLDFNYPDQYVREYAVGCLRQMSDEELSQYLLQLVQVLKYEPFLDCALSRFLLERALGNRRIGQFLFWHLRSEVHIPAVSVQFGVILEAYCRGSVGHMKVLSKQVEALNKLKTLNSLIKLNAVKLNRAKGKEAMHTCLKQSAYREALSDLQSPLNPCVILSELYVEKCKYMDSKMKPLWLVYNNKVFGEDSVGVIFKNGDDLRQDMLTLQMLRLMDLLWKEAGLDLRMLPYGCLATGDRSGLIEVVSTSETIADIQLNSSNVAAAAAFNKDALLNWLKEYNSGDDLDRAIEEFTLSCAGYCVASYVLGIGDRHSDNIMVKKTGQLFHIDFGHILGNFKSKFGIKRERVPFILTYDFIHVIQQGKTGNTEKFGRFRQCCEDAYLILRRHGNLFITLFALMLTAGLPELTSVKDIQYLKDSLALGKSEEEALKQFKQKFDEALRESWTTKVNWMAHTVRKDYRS
T1 sequence (P48736 whole entry): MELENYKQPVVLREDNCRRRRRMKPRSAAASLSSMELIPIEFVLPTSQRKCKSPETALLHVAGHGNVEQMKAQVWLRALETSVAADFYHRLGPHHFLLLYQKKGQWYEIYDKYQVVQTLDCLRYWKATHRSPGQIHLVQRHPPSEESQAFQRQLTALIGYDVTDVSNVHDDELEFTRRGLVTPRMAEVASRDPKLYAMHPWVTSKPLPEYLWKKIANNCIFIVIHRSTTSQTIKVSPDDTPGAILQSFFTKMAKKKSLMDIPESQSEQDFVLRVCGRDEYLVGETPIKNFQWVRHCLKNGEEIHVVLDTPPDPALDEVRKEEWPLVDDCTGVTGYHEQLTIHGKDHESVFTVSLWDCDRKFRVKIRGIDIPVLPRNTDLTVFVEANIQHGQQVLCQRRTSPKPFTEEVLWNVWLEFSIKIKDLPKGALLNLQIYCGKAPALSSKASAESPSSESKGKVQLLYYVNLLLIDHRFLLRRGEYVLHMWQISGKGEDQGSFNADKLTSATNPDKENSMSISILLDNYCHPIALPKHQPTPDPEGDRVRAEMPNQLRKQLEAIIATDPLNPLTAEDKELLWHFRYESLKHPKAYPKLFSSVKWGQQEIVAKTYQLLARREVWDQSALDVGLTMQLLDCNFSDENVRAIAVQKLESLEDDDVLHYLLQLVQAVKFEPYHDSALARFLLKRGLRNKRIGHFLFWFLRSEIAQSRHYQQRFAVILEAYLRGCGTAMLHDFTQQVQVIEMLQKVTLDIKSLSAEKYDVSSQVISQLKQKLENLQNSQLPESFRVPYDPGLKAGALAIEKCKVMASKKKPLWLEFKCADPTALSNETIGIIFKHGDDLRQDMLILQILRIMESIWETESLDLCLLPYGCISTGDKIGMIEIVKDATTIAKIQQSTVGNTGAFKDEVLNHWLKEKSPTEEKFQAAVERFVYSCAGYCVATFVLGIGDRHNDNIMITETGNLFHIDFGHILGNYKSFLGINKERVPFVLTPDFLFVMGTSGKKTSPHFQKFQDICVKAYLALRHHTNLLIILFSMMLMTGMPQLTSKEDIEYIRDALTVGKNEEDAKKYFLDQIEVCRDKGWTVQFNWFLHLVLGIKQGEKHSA

Compound | pKd [1] | pKd [2] | pKd [3] | melting point | pIC50 [4] | pKd [5] | pKd [6] | pIC50 [7] | pIC50 ([4]; Homo sapiens, PC-3, 1 h) | pIC50 ([7]; Homo sapiens, PC-3, 1 h)
CNCCNC(=O)c1cc(C(C)Oc2cc(F)cc(F)c2)c2nc(N3CCOCC3)cnc2c1 (single isomer, unassigned) [Compound 165] | 5.26 | 4.85 | 5.75 | 80 °C | 7.96 | 9.52 | 6.74 | 7.35 | – | –
CC(Nc1ccccc1)c1cc(C(=O)N(C)C)cc2ncc(N3CCOCC3)nc12 (centres unmarked) [Compound 150] | 5.43 | < 4.52 | 5.54 | 110 °C | – | 8.52 | 6.30 | – | 7.04 | 6.86
CN(C(=O)c1cc(NCc2cc(F)cc(F)c2)c2nc(N3CCOCC3)cnc2c1)[C@@H]1CCNC1 [Compound 355] | 4.68 | 4.88 | 5.32 | 80 °C | – | 7.89 | 5.54 | – | 6.36 | < 6.29
CC(Oc1cc(F)cc(F)c1)c1cc(C(=O)N(C)C)cc2ncc(C3=CCOCC3)nc12 (single isomer, unassigned) [Compound 403a] | 5.05 | < 4.52 | 5.83 | 53 °C | ~6.88 | 8.52 | 6.48 | – | – | ~6.56
CNCCOCCN(C)C(=O)c1cc(C(C)Nc2ccc(F)c(F)c2)c2nc(N3CCOCC3)cnc2c1 (single isomer, unassigned) [Compound 345a] | 4.83 | < 4.52 | 5.36 | 80 °C | 7.55 | 8.70 | 6.55 | 7.10 | – | –
CNCCNC(=O)c1cc(C(C)N(C)c2cccc(F)c2)c2nc(N3CCOCC3)cnc2c1 (centres unmarked) [Compound 130] | 6.62 | 5.21 | 6.44 | 159 °C | – | 9.30 | 6.87 | – | 7.19 | 7.05
CC(C)NCCNC(=O)c1cc(C(C)Nc2cc(F)c(F)c(F)c2)c2nc(N3CCOCC3)cnc2c1 (single isomer, unassigned) [Compound 283a] | 4.72 | < 4.52 | 4.92 | 173 °C | – | 8.15 | 5.81 | – | 7.28 | 7.09
CC1CN(C(=O)c2cc(C(C)Nc3ccc(F)c(F)c3)c3nc(N4CCOCC4)cnc3c2)CC(C)N1 (centres unmarked) [Compound 357b] | 5.09 | < 4.52 | 6.03 | 120 °C | – | 9.00 | 6.80 | – | 7.85 | 7.52
CNCC(O)c1cc(C2CCCN2c2cc(F)cc(F)c2)c2nc(N3CCOCC3)cnc2c1 (centres unmarked) [Compound 19] | 6.51 | 4.74 | 6.44 | 80 °C | – | 9.70 | 7.54 | – | 8.00 | 7.82
CNCCNC(=O)c1cc(C(C)Nc2cc(F)cc(F)c2)c2nc(N3CCOCC3)cnc2c1 (single isomer, unassigned) [Compound 406a] | 5.98 | 4.64 | 6.43 | 80 °C | 8.40 | 10.00 | 7.41 | 8.10 | – | –
OC[C@@H]1CCCN1Cc1cc(C2CCCN2c2cc(F)cc(F)c2)c2nc(N3CCOCC3)cnc2c1 (single isomer, unassigned) [Compound 77] | 6.19 | < 4.52 | 6.44 | 80 °C | – | 9.52 | 7.00 | – | ~7.29 | ~7.12
CNCCOCCN(C)C(=O)c1cc(C(C)Nc2cc(F)cc(F)c2)c2nc(N3CCOCC3)cnc2c1 (single isomer, unassigned) [Compound 174] | < 4.52 | < 4.52 | < 4.52 | 80 °C | < 6.29 | 5.92 | 4.58 | < 6.29 | – | –
O=C(O)c1cc(C2CCCN2c2cc(F)cc(F)c2)c2nc(N3CCOCC3)cnc2c1 (single isomer, unassigned) [Compound 251] | 7.19 | 6.17 | 8.10 | 299 °C | – | 9.52 | 7.64 | – | 7.64 | 7.28
CNCCNC(=O)c1cc(NCc2cc(F)cc(F)c2)c2nc(N3CCOCC3)cnc2c1 [Compound 340] | 5.30 | 4.92 | 5.82 | 180 °C | – | 8.70 | 6.43 | – | 7.30 | 7.12
CN(CCO)C(=O)c1cc(C2CCCN2c2cc(F)cc(F)c2)c2nc(N3CCOCC3)cnc2c1 (centres unmarked) [Compound 50] | 7.06 | 5.05 | 7.96 | 80 °C | – | 9.70 | 8.10 | – | 9.00 | 9.00
COCCN(C)Cc1cc(C2CCCN2c2cc(F)cc(F)c2)c2nc(N3CCOCC3)cnc2c1 (centres unmarked) [Compound 112] | 5.62 | < 4.52 | 6.02 | 80 °C | – | 9.00 | 6.69 | – | ~7.21 | 6.76
